Data on 22 compounds can be found in ChEMBL document CHEMBL1134311, “Nonsteroidal selective glucocorticoid modulators: the effect of C-5 alkyl substitution on the transcriptional activation/repression profile of 2,5-dihydro-10-methoxy-2,2,4-trimethyl-1H-[1]benzopyrano[3,4-f]quinolines” (J Med Chem, 2001).

Assay [1] addresses T1, Glucocorticoid receptor (Homo sapiens, UniProt P04150).
T1 sequence (P04150 whole entry): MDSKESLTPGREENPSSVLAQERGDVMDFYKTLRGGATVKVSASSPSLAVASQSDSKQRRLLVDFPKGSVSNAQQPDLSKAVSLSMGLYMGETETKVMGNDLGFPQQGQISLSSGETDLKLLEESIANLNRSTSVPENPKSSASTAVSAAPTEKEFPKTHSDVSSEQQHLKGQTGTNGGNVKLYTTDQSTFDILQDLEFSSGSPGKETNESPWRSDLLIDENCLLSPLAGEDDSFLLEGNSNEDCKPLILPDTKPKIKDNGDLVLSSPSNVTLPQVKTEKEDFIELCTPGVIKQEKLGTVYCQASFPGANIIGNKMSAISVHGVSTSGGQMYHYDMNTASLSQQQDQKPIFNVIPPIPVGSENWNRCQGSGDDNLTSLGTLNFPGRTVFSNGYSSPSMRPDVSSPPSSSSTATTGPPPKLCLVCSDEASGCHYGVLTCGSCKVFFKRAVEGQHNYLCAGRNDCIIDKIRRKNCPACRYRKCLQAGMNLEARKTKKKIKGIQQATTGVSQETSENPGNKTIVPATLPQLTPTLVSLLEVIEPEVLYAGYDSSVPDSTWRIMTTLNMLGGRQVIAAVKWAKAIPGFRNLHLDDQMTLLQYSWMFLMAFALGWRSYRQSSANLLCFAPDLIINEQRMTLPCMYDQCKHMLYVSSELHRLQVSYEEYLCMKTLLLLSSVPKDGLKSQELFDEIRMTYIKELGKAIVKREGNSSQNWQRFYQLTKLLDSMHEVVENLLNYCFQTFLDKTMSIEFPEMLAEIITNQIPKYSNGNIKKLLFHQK
Briefly: The effective concentration in CV-1 cells for glucocorticoid response element activation (GRE). It is filed as functional, cell-based.

In assay [2] the target is T1, Glucocorticoid receptor. Put plainly: Effective concentration in HepG2 cells transfected with LUC gene (E-sel-Luc). The class given is functional, cell-based.
The target in assay [3] is T1, Glucocorticoid receptor. Briefly: Binding affinity towards glucocorticoid receptor (GR) by displacing [3H]dexamethasone.
The next assay addresses T2, Progesterone receptor (Homo sapiens, UniProt P06401).
T2 sequence (P06401 whole entry): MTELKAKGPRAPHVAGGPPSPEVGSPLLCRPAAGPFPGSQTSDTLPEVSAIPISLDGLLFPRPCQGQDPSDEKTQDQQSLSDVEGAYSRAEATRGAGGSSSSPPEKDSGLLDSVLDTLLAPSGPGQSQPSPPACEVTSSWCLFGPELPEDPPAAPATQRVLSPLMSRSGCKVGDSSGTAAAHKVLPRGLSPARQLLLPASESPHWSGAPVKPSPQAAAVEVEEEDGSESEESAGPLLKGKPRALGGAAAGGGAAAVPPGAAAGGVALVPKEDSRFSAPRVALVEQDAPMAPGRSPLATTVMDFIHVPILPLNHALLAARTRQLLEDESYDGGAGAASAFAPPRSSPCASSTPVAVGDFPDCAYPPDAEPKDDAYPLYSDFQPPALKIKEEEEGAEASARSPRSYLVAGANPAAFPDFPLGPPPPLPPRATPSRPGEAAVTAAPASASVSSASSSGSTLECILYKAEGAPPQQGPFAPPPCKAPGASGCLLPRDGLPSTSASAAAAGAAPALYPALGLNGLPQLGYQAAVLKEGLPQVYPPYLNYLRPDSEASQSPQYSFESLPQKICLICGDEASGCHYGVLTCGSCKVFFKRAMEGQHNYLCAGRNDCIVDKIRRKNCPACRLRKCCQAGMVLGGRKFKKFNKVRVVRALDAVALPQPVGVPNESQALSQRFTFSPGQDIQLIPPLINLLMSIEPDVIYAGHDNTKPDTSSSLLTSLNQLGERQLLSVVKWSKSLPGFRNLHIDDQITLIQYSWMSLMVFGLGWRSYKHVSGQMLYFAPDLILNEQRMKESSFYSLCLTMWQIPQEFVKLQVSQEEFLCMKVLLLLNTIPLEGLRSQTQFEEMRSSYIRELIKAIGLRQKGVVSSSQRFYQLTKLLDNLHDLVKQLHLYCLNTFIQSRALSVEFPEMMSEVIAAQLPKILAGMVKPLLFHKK
Put plainly: Binding affinity towards progesterone receptor (PR) by displacing [3H]progesterone.

A word on the EC50: it is the midpoint of the concentration-response curve. Low values mean an effect from little substance, high ones a need for much substance. What is called Ki is the equilibrium dissociation constant of an inhibitor or competing ligand from its target.

Some results are limits rather than exact numbers.

For `C/C=C\C1Oc2cccc(OC)c2-c2ccc3c(c21)C(C)=CC(C)(C)N3` (centres undefined), the EC50 on Glucocorticoid receptor [1] worked out at 460 nM; on Glucocorticoid receptor [2], 168 nM.

For `C=CCC1Oc2cccc(OC)c2-c2ccc3c(c21)C(C)=CC(C)(C)N3` (stereo in doubt; 37) [AL-43], the EC50 was 520 nM on Glucocorticoid receptor [1] and 450 nM on Glucocorticoid receptor [2]. The Ki at Glucocorticoid receptor [3] was 150 nM; at Progesterone receptor it was > 5000 nM.

For the compound `C=CCC1Oc2cccc(OC)c2-c2ccc3c(c21)C(C)=CC(C)(C)N3` (racemic) [AL-43], the EC50 was determined as 33 nM at Glucocorticoid receptor [1] and 13 nM at Glucocorticoid receptor [2]. Besides, the inhibition constant Ki came to 2.5 nM on Glucocorticoid receptor [3] and 1800 nM at Progesterone receptor.

Take `C#CCC1Oc2cccc(OC)c2-c2ccc3c(c21)C(C)=CC(C)(C)N3` (centres undefined): the concentration for a half-maximal effect (EC50) at Glucocorticoid receptor [1] amounted to 34 nM; on Glucocorticoid receptor [2], 27 nM. The same compound returned an inhibitory constant (Ki) on Progesterone receptor of 760 nM.

With `C=CCCC1Oc2cccc(OC)c2-c2ccc3c(c21)C(C)=CC(C)(C)N3` (centres undefined), the 50% effective concentration (EC50) worked out at 78 nM at Glucocorticoid receptor [1] and 22 nM on Glucocorticoid receptor [2]. The figures for the Ki on Glucocorticoid receptor [3] and on Progesterone receptor were 8.1 nM and > 5000 nM, respectively.

Consider `COc1cccc2c1-c1ccc3c(c1CO2)C(C)=CC(C)(C)N3`, for which the EC50 on Glucocorticoid receptor [1] and on Glucocorticoid receptor [2] was > 5000 nM throughout. At Progesterone receptor, the inhibitory constant (Ki) is > 5000 nM.

For `CNC(=O)CC1Oc2cccc(OC)c2-c2ccc3c(c21)C(C)=CC(C)(C)N3` (centres undefined), the EC50 at Glucocorticoid receptor [1] and at Glucocorticoid receptor [2] was > 5000 nM each time. Further, the values for the Ki on Glucocorticoid receptor [3] and at Progesterone receptor were 3200 nM and > 5000 nM, respectively.

For the compound `COc1cccc2c1-c1ccc3c(c1C(CC(=O)N(C)C)O2)C(C)=CC(C)(C)N3` (centres undefined), the EC50 at Glucocorticoid receptor [1] and at Glucocorticoid receptor [2] was > 5000 nM each time. Besides, the Ki at Progesterone receptor was > 5000 nM.

Regarding `C=CCC1Oc2cccc(OC)c2-c2ccc3c(c21)C(C)=CC(C)(C)N3` (single isomer, unassigned; (-)) [AL-43], the half-maximal effective concentration (EC50) worked out at 14 nM on Glucocorticoid receptor [1] and 6.9 nM on Glucocorticoid receptor [2]. Moreover, the inhibitory constant (Ki) on Progesterone receptor stood at 1300 nM.

`COc1cccc2c1-c1ccc3c(c1C(Cc1ccccc1)O2)C(C)=CC(C)(C)N3` (centres undefined): the inhibition constant (Ki) on Progesterone receptor is > 5000 nM.

On to `COc1cccc2c1-c1ccc3c(c1C(CCN(C)C)O2)C(C)=CC(C)(C)N3` (centres undefined), for which the inhibition constant Ki on Progesterone receptor is > 5000 nM.

Turning to `C/C=C/C1Oc2cccc(OC)c2-c2ccc3c(c21)C(C)=CC(C)(C)N3` (centres undefined), the EC50 on Glucocorticoid receptor [1] worked out at 400 nM; on Glucocorticoid receptor [2], 144 nM. Further, the values for the Ki on Glucocorticoid receptor [3] and on Progesterone receptor were 9 nM and 2100 nM, respectively.

As for `COc1cccc2c1-c1ccc3c(c1C(C1CCCCC1)O2)C(C)=CC(C)(C)N3` (centres undefined), the Ki at Progesterone receptor was > 5000 nM.

As for `COc1cccc2c1-c1ccc3c(c1C(CC(=O)O)O2)C(C)=CC(C)(C)N3` (centres undefined), the half-maximal effective concentration (EC50) at Glucocorticoid receptor [1] and on Glucocorticoid receptor [2] was > 5000 nM each time. The inhibition constant Ki at Glucocorticoid receptor [3] and on Progesterone receptor was > 5000 nM throughout.

In the case of `COc1cccc2c1-c1ccc3c(c1C(CC(C)C)O2)C(C)=CC(C)(C)N3` (centres undefined), the concentration for a half-maximal effect (EC50) is 223 nM at Glucocorticoid receptor [1] and 69 nM on Glucocorticoid receptor [2]. The values for the Ki at Glucocorticoid receptor [3] and on Progesterone receptor were 9.5 nM and > 5000 nM, respectively.

In the case of `COc1cccc2c1-c1ccc3c(c1C(CCO)O2)C(C)=CC(C)(C)N3` (centres undefined), at Progesterone receptor, the inhibition constant (Ki) was > 5000 nM.

As to `COc1cccc2c1-c1ccc3c(c1C(C(C)C)O2)C(C)=CC(C)(C)N3` (centres undefined), the EC50 on Glucocorticoid receptor [1] amounted to 146 nM; on Glucocorticoid receptor [2], 39 nM. Moreover, at Progesterone receptor, the Ki is > 5000 nM.

Regarding `COc1cccc2c1-c1ccc3c(c1C(c1cccc(OCSC)c1)O2)C(C)=CC(C)(C)N3` (centres undefined), the values for the concentration for a half-maximal effect (EC50) on Glucocorticoid receptor [1] and on Glucocorticoid receptor [2] were 9 nM and 4 nM, respectively. Besides, the Ki on Progesterone receptor was > 5000 nM.

In the case of `CCC1Oc2cccc(OC)c2-c2ccc3c(c21)C(C)=CC(C)(C)N3` (centres undefined), the EC50 on Glucocorticoid receptor [1] amounted to 264 nM; at Glucocorticoid receptor [2] it was 90 nM. At Progesterone receptor, the Ki is > 5000 nM.

For `CCCC1Oc2cccc(OC)c2-c2ccc3c(c21)C(C)=CC(C)(C)N3` (centres undefined), the EC50 on Glucocorticoid receptor [1] was 75 nM; on Glucocorticoid receptor [2], 70 nM. Moreover, the Ki is 5 nM on Glucocorticoid receptor [3] and > 5000 nM at Progesterone receptor.

With `COc1cccc2c1-c1ccc3c(c1C(C(N)=O)O2)C(C)=CC(C)(C)N3` (centres undefined), the EC50 at Glucocorticoid receptor [1] and on Glucocorticoid receptor [2] was > 5000 nM each time. The inhibition constant (Ki) at Glucocorticoid receptor [3] and on Progesterone receptor was > 5000 nM throughout.

`COc1cccc2c1-c1ccc3c(c1C(C1CCCC1)O2)C(C)=CC(C)(C)N3` (centres undefined): the inhibitory constant (Ki) at Progesterone receptor was > 5000 nM.
